Consider 22 compounds from patent US20250313577A1, “TRICYCLIC PYRIDONES AND PYRIMIDONES” (ERASCA, INC, priority 2022, published 2025).

Where only a bound is given, the exact number is not on record here.

The assay deals with T1, KRAS G12C (Homo sapiens, UniProt P01116, G12C).
T1 construct: expressed in transfected cells; host or cells: Ras Initiative (RI) KRAS G12C cells
T1 sequence (P01116 1-188 isoform P01116-2 G12C): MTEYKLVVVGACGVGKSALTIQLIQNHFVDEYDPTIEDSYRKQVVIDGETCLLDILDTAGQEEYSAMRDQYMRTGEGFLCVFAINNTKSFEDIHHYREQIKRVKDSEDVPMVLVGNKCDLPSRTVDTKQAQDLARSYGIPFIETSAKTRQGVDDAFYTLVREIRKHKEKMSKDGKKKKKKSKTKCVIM
Description: phospho-ERK HTRF assay in Ras Initiative (RI) KRAS G12C cells. Particulars: phospho-ERK1/2 HTRF, 11-point dose response from 2,500 nM, treatment for either 4 hours or 16 hours, read-out: pERK (RI). It is filed as cell-based. Here is the method:
Inhibition of KRAS G12C-Mediates Phospho-ERK1/2 Inhibition by Compounds of Formula I
This Example illustrates that various compounds of the present disclosure inhibit KRAS G12C thereby mediating the downstream inhibition of phospho-ERK1/2.
KRAS G12C mutant cell lines, NCI H358 (ATCC, CRL-5807), and Ras Initiative (R1) KRAS G12C were cultured according to published protocols and maintained at 37° C. in 5% CO2. The phospho-ERK HTRF assay was executed following provider's protocol (CisBio #64AERPEH). NCI-H358 or RI KRAS G12C cells were plated at a density of 50,000 cells per well in a 96-well plate (Corning #3903) in respective medias (for NCI-H358, RPMI+10% FBS+1% Pen/Strep, and for RI KRAS G12C, DMEM+10% FBS+1% Pen/Strep+4 ug/ml Blasticidin) and maintained at 37° C. in 5% CO2. Cells were allowed to adhere overnight and treated the following day with a Tecan D300e Digital Dispenser (Tecan Group Ltd., Switzerland) using an 11-point dose response starting at 2,500 nM of exemplified compounds followed by sequential 1:3 dilutions for either 4 hours or 16 hours. Following compound treatment, the cells were washed once with ice-cold PBS. Cells were lysed by adding 50 μl of lysis buffer (1×) supplemented with 1× Pierce Halt Protease and Phosphatase inhibitor and incubated for 30 minutes at 4° C. with shaking. After lysis, 16 μL of cell lysate from the 96-well cell-culture plate was transferred to a 384-well plate (Perkin Elmer #6007290). The premixed antibody solution was prepared by mixing (vol/vol) advanced phospho-ERK1/2 d2 antibody and advanced phospho-ERK1/2 Eu Cryptate antibody. The premixed antibody solution ([…]) was added to the detection plate containing cell lysate. The detection plate was incubated overnight at 4° C., the HTRF signal was read the next day by using either a Spectramax M5 or Spectramax i3 microplate reader (Molecular Devices, San Jose, CA, USA), and data was processed according to manufacturer's protocol.
Compounds prepared according to the preceding procedures and characterized for inhibition of p-ERK according to the protocol provided herein are summarized in Table 3: […]
For orientation: Time-resolved FRET reads energy transfer from a long-lived donor to a nearby acceptor.
Consider `C=CC(=O)N1[C@H](C)CN(c2nc(=O)n3c4c(c(-c5cc(Cl)c(F)cc5F)c(C(F)(F)F)cc24)SC[C@@H](c2ccncc2)C3)C[C@@H]1C` (atropisomer, axis not shown) [Example 100B, (3S)-8-((3S,5R)-4-acryloyl-3,5-dimethylpiperazin-1-yl)-11-(5-chloro-2,4-difluorophenyl)-3-(pyridin-4-yl)-10-(trifluoromethyl)-3,4-dihydro-2H,6H-[1,4]thiazepino[2,3,4-ij]quinazolin-6-one], for which the IC50 lay within 0.5 to 2 nM.

Regarding `C=CC(=O)N1[C@H](C)CN(c2nc(=O)n3c4c(c(-c5cc(Cl)c(F)cc5F)c(C(F)(F)F)cc24)SC[C@@H](c2cccnc2)C3)C[C@@H]1C` (atropisomer, axis not shown) [Example 104A, (3S,11R)-8-((3S,5R)-4-acryloyl-3,5-dimethylpiperazin-1-yl)-11-(5-chloro-2,4-difluorophenyl)-3-(pyridin-3-yl)-10-(trifluoromethyl)-3,4-dihydro-2H,6H-[1,4]thiazepino[2,3,4-ij]quinazolin-6-one], the IC50 was in the range of 0.5 to 2 nM.

`C=CC(=O)N1[C@H](C)CN(c2nc(=O)n3c4c(c(-c5cc(Br)c(F)cc5F)c(C(F)(F)F)cc24)SC[C@@H](c2cccnc2)C3)C[C@@H]1C` (atropisomer, axis not shown) [Example 108A, (3S,11R)-8-((3S,5R)-4-acryloyl-3,5-dimethylpiperazin-1-yl)-11-(5-bromo-2,4-difluorophenyl)-3-(pyridin-3-yl)-10-(trifluoromethyl)-3,4-dihydro-2H,6H-[1,4]thiazepino[2,3,4-ij]quinazolin-6-one]: the IC50 was 0.5 to 2 nM.

In the case of `C=CC(=O)N1[C@H](C)CN(c2nc(=O)n3c4c(c(-c5ccc(F)cc5F)c(C(F)(F)F)cc24)SC[C@H](c2ccc(F)cc2)C3)C[C@@H]1C` (atropisomer, axis not shown) [Example 118], the IC50 is > 250 nM.

In the case of `C=CC(=O)N1[C@H](C)CN(c2nc(=O)n3c4c(c(-c5cc(Cl)c(F)cc5F)c(C(F)(F)F)cc24)SC[C@@H](c2ccncc2)C3)C[C@@H]1C` (single isomer, unassigned) [Example 100A], the IC50 was 2 to 20 nM.

As for `C=CC(=O)N1[C@H](C)CN(c2nc(=O)n3c4c(c(-c5cc(Br)c(F)cc5F)c(C(F)(F)F)cc24)SC[C@@H](c2ccccn2)C3)C[C@@H]1C` (single isomer, unassigned) [Example 107A], the IC50 fell in the range of 2 to 20 nM.

With `C=CC(=O)N1[C@H](C)CN(c2nc(=O)n3c4c(c(-c5cc(Br)c(F)cc5F)c(C(F)(F)F)cc24)SC[C@@H](c2ccccn2)C3)C[C@@H]1C` (single isomer, unassigned) [Example 107B], the IC50 was 0.5 to 2 nM.

As for `C=CC(=O)N1[C@H](C)CN(c2nc(=O)n3c4c(c(-c5cc(Cl)c(F)cc5F)c(C(F)(F)F)cc24)SC[C@@H](c2ccncc2F)C3)C[C@@H]1C` (single isomer, unassigned) [Example 112A], the IC50 is 2 to 20 nM.

For `C=CC(=O)N1[C@H](C)CN(c2nc(=O)n3c4c(c(-c5cc(Cl)c(F)cc5F)c(C(F)(F)F)cc24)SC[C@@H](c2ccncc2F)C3)C[C@@H]1C` (single isomer, unassigned) [Example 112B], the IC50 lay in the range of 0.5 to 2 nM.

Take `C=CC(=O)N1[C@H](C)CN(c2nc(=O)n3c4c(c(-c5cc(Br)c(F)cc5F)c(C(F)(F)F)cc24)SC[C@@H](c2ccncc2)C3)C[C@@H]1C` [Example 102, (3S)-8-((3S,5R)-4-acryloyl-3,5-dimethylpiperazin-1-yl)-11-(5-bromo-2,4-difluorophenyl)-3-(pyridin-4-yl)-10-(trifluoromethyl)-3,4-dihydro-2H,6H-[1,4]thiazepino[2,3,4-ij]quinazolin-6-one]: the IC50 fell in the range of 0.5 to 2 nM.

Turning to `C=CC(=O)N1[C@H](C)CN(c2nc(=O)n3c4c(c(-c5cc(Br)c(F)cc5F)c(C(F)(F)F)cc24)SC[C@H](c2ccccn2)C3)C[C@@H]1C` [Example 103], the IC50 is > 250 nM.

Turning to `C=CC(=O)N1[C@H](C)CN(c2nc(=O)n3c4c(c(-c5cc(Cl)c(F)cc5F)c(C(F)(F)F)cc24)SC[C@@H](c2cccnc2)C3)C[C@@H]1C` [Example 104B, (3S,11S)-8-((3S,5R)-4-acryloyl-3,5-dimethylpiperazin-1-yl)-11-(5-chloro-2,4-difluorophenyl)-3-(pyridin-3-yl)-10-(trifluoromethyl)-3,4-dihydro-2H,6H-[1,4]thiazepino[2,3,4-ij]quinazolin-6-one], the IC50 fell in the range of 2 to 20 nM.

Take `C=CC(=O)N1[C@H](C)CN(c2nc(=O)n3c4c(c(-c5ccc(F)cc5)c(C(F)(F)F)cc24)SC[C@@H](c2ccccn2)C3)C[C@@H]1C` [Example 106, (R)-8-((3S,5R)-4-acryloyl-3,5-dimethylpiperazin-1-yl)-11-(4-fluorophenyl)-3-(pyridin-2-yl)-10-(trifluoromethyl)-3,4-dihydro-2H,6H-[1,4]thiazepino[2,3,4-ij]quinazolin-6-one]: the IC50 fell in the range of 0.5 to 2 nM.

As for `C=CC(=O)N1[C@H](C)CN(c2nc(=O)n3c4c(c(-c5cc(Br)c(F)cc5F)c(C(F)(F)F)cc24)SC[C@@H](c2cccnc2)C3)C[C@@H]1C` [Example 108B, (3S,11S)-8-((3S,5R)-4-acryloyl-3,5-dimethylpiperazin-1-yl)-11-(5-bromo-2,4-difluorophenyl)-3-(pyridin-3-yl)-10-(trifluoromethyl)-3,4-dihydro-2H,6H-[1,4]thiazepino[2,3,4-ij]quinazolin-6-one], the IC50 lay within 2 to 20 nM.

Turning to `C=CC(=O)N1[C@H](C)CN(c2nc(=O)n3c4c(c(-c5cc(Cl)c(F)cc5F)c(C(F)(F)F)cc24)SC[C@@H](c2cncc(F)c2)C3)C[C@@H]1C` [Example 109, (3S)-8-((3S,5R)-4-acryloyl-3,5-dimethylpiperazin-1-yl)-11-(5-chloro-2,4-difluorophenyl)-3-(5-fluoropyridin-3-yl)-10-(trifluoromethyl)-3,4-dihydro-2H,6H-[1,4]thiazepino[2,3,4-ij]quinazolin-6-one], the IC50 was 2 to 20 nM.

With `C=CC(=O)N1[C@H](C)CN(c2nc(=O)n3c4c(c(-c5cc(Cl)c(F)cc5F)c(C(F)(F)F)cc24)SC[C@H](c2ccncc2F)C3)C[C@@H]1C` [Example 111], the IC50 lay in the range of 20 to 250 nM.

For the compound `C=CC(=O)N1[C@H](C)CN(c2nc(=O)n3c4c(c(-c5ccc(F)cc5)c(C(F)(F)F)cc24)SC[C@@H](c2ccncc2)C3)C[C@@H]1C` [Example 113, (S)-8-((3S,5R)-4-acryloyl-3,5-dimethylpiperazin-1-yl)-11-(4-fluorophenyl)-3-(pyridin-4-yl)-10-(trifluoromethyl)-3,4-dihydro-2H,6H-[1,4]thiazepino[2,3,4-ij]quinazolin-6-one], the IC50 lay within 0.5 to 2 nM.

Turning to `C=CC(=O)N1[C@H](C)CN(c2nc(=O)n3c4c(c(-c5ccc(F)cc5)c(C(F)(F)F)cc24)SC[C@@H](c2ccncc2F)C3)C[C@@H]1C` [Example 114, (S)-8-((3S,5R)-4-acryloyl-3,5-dimethylpiperazin-1-yl)-11-(4-fluorophenyl)-3-(3-fluoropyridin-4-yl)-10-(trifluoromethyl)-3,4-dihydro-2H,6H-[1,4]thiazepino[2,3,4-ij]quinazolin-6-one], the IC50 was 0.5 to 2 nM.

Regarding `C=CC(=O)N1[C@H](C)CN(c2nc(=O)n3c4c(c(-c5ccc(F)cc5)c(C(F)(F)F)cc24)SCC(c2ccc(F)cc2)C3)C[C@@H]1C` (stereo partly drawn) [Example 115, 8-((3S,5R)-4-acryloyl-3,5-dimethylpiperazin-1-yl)-3,11-bis(4-fluorophenyl)-10-(trifluoromethyl)-3,4-dihydro-2H,6H-[1,4]thiazepino[2,3,4-ij]quinazolin-6-one], the IC50 fell in the range of 20 to 250 nM.

With `C=CC(=O)N1[C@H](C)CN(c2nc(=O)n3c4c(c(-c5ccc(F)cc5)c(C(F)(F)F)cc24)SCC(c2ccc(F)cc2)C3)C[C@@H]1C` (stereo partly shown) [Example 116], the IC50 is 2 to 20 nM.

On to `C=CC(=O)N1[C@H](C)CN(c2nc(=O)n3c4c(c(-c5ccc(F)cc5)c(C(F)(F)F)cc24)SC[C@H](c2cccs2)C3)C[C@@H]1C` [Example 124, (R)-8-((3S,5R)-4-acryloyl-3,5-dimethylpiperazin-1-yl)-11-(4-fluorophenyl)-3-(thiophen-2-yl)-10-(trifluoromethyl)-3,4-dihydro-2H,6H-[1,4]thiazepino[2,3,4-ij]quinazolin-6-one], for which the IC50 lay within 20 to 250 nM.

On to `C=CC(=O)N1[C@H](C)CN(c2nc(=O)n3c4c(c(-c5ccc(F)cc5)c(C(F)(F)F)cc24)SC[C@@H](c2cccs2)C3)C[C@@H]1C` [Example 125, (S)-8-((3S,5R)-4-acryloyl-3,5-dimethylpiperazin-1-yl)-11-(4-fluorophenyl)-3-(thiophen-2-yl)-10-(trifluoromethyl)-3,4-dihydro-2H,6H-[1,4]thiazepino[2,3,4-ij]quinazolin-6-one], for which the IC50 lay within 2 to 20 nM.
